Measured values published in the supplement of paper PMC10307832.

How the values were obtained:
Assay in all cases: relative viability (nuclei count vs DMSO), 5 days (fraction); higher = more cells survive
NCI-H1437 = system: NCI-H1437
Procedure, shortened: (§1)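 Values are medians from duplicate plates. Each reflects relative viability, defined as the nuclei count of treated wells over that of vehicle wells. Lung cancer cell lines in 1536-well plates were pin-tool dosed one day after seeding with one drug alone or with a fixed anchor-drug dose plus five library-drug doses (not always all listed) in √10 steps, then fixed, stained and imaged at 4× after 5 days.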

NCI-H1395 = system: NCI-H1395
Procedure, shortened: as §1

BEN = system: BEN
Procedure, shortened: as §1

SK-LU-1 = system: SK-LU-1
Procedure, shortened: as §1

HCC-827 = system: HCC-827
Procedure, shortened: as §1

HARA = system: HARA
Procedure, shortened: as §1

NCI-H1993 = system: NCI-H1993
Procedure, shortened: as §1

NCI-H647 = system: NCI-H647
Procedure, shortened: as §1

NCI-H1734 = system: NCI-H1734
Procedure, shortened: as §1

EKVX = system: EKVX
Procedure, shortened: as §1

SK-MES-1 = system: SK-MES-1
Procedure, shortened: as §1

NCI-H2009 = system: NCI-H2009
Procedure, shortened: as §1

NCI-H2170 = system: NCI-H2170
Procedure, shortened: as §1

HCC-366 = system: HCC-366
Procedure, shortened: as §1

NCI-H2087 = system: NCI-H2087
Procedure, shortened: as §1

LOU-NH91 = system: LOU-NH91
Procedure, shortened: as §1

NCI-H1792 = system: NCI-H1792
Procedure, shortened: as §1

NCI-H522 = system: NCI-H522
Procedure, shortened: as §1

NCI-H1355 = system: NCI-H1355
Procedure, shortened: as §1

NCI-H661 = system: NCI-H661
Procedure, shortened: as §1

NCI-H2405 = system: NCI-H2405
Procedure, shortened: as §1

NCI-H2342 = system: NCI-H2342
Procedure, shortened: as §1

Nc1ccn([C@@H]2O[C@H](CO)[C@@H](O)[C@@H]2O)c(=O)n1 [Cytarabine] + N=C(N)NC(=N)NCCc1ccccc1 [Phenformin] (partner 250 µM)
relative viability (NCI-H1437; first compound 0.005 µM): 0.199
relative viability (NCI-H1437; first compound 0.01581 µM): 0.183
relative viability (NCI-H1437; first compound 0.05 µM): 0.17
relative viability (NCI-H1437; first compound 0.5 µM): 0.105
relative viability (NCI-H1395; first compound 0.005 µM): 0.411
relative viability (NCI-H1395; first compound 0.01581 µM): 0.392
relative viability (NCI-H1395; first compound 0.05 µM): 0.353
relative viability (NCI-H1395; first compound 0.1581 µM): 0.319
relative viability (NCI-H1395; first compound 0.5 µM): 0.31
relative viability (BEN; first compound 0.005 µM): 0.193
relative viability (BEN; first compound 0.01581 µM): 0.22
relative viability (BEN; first compound 0.05 µM): 0.244
relative viability (BEN; first compound 0.1581 µM): 0.195
relative viability (BEN; first compound 0.5 µM): 0.212
relative viability (SK-LU-1; first compound 0.005 µM): 0.353
relative viability (SK-LU-1; first compound 0.01581 µM): 0.413
relative viability (SK-LU-1; first compound 0.05 µM): 0.445
relative viability (SK-LU-1; first compound 0.1581 µM): 0.241
relative viability (SK-LU-1; first compound 0.5 µM): 0.2
relative viability (HCC-827; first compound 0.005 µM): 0.321
relative viability (HCC-827; first compound 0.01581 µM): 0.258
relative viability (HCC-827; first compound 0.05 µM): 0.195
relative viability (HCC-827; first compound 0.1581 µM): 0.141
relative viability (HCC-827; first compound 0.5 µM): 0.158
relative viability (HARA; first compound 0.005 µM): 0.359
relative viability (HARA; first compound 0.01581 µM): 0.325
relative viability (HARA; first compound 0.05 µM): 0.296
relative viability (HARA; first compound 0.1581 µM): 0.196
relative viability (HARA; first compound 0.5 µM): 0.0852
relative viability (NCI-H1993; first compound 0.005 µM): 0.588
relative viability (NCI-H1993; first compound 0.01581 µM): 0.483
relative viability (NCI-H1993; first compound 0.05 µM): 0.529
relative viability (NCI-H1993; first compound 0.1581 µM): 0.515
relative viability (NCI-H1993; first compound 0.5 µM): 0.422
relative viability (NCI-H647; first compound 0.005 µM): 0.181
relative viability (NCI-H647; first compound 0.01581 µM): 0.204
relative viability (NCI-H647; first compound 0.05 µM): 0.193
relative viability (NCI-H647; first compound 0.1581 µM): 0.0662
relative viability (NCI-H647; first compound 0.5 µM): 0.0608
relative viability (NCI-H1734; first compound 0.005 µM): 0.322
relative viability (NCI-H1734; first compound 0.01581 µM): 0.219
relative viability (NCI-H1734; first compound 0.05 µM): 0.191
relative viability (NCI-H1734; first compound 0.1581 µM): 0.155
relative viability (NCI-H1734; first compound 0.5 µM): 0.155
relative viability (EKVX; first compound 0.005 µM): 0.217
relative viability (EKVX; first compound 0.01581 µM): 0.192
relative viability (EKVX; first compound 0.05 µM): 0.172
relative viability (EKVX; first compound 0.1581 µM): 0.211
relative viability (EKVX; first compound 0.5 µM): 0.207
relative viability (SK-MES-1; first compound 0.005 µM): 0.44
relative viability (SK-MES-1; first compound 0.01581 µM): 0.389
relative viability (SK-MES-1; first compound 0.05 µM): 0.212
relative viability (SK-MES-1; first compound 0.1581 µM): 0.206
relative viability (SK-MES-1; first compound 0.5 µM): 0.178
relative viability (NCI-H2009; first compound 0.005 µM): 0.42
relative viability (NCI-H2009; first compound 0.01581 µM): 0.503
relative viability (NCI-H2009; first compound 0.05 µM): 0.455
relative viability (NCI-H2009; first compound 0.1581 µM): 0.386
relative viability (NCI-H2009; first compound 0.5 µM): 0.268
relative viability (NCI-H2170; first compound 0.005 µM): 0.328
relative viability (NCI-H2170; first compound 0.01581 µM): 0.321
relative viability (NCI-H2170; first compound 0.05 µM): 0.25
relative viability (NCI-H2170; first compound 0.1581 µM): 0.218
relative viability (NCI-H2170; first compound 0.5 µM): 0.205
relative viability (HCC-366; first compound 0.005 µM): 0.617
relative viability (HCC-366; first compound 0.01581 µM): 0.586
relative viability (HCC-366; first compound 0.05 µM): 0.528
relative viability (HCC-366; first compound 0.1581 µM): 0.2
relative viability (HCC-366; first compound 0.5 µM): 0.0951
relative viability (NCI-H2087; first compound 0.005 µM): 0.384
relative viability (NCI-H2087; first compound 0.01581 µM): 0.308
relative viability (NCI-H2087; first compound 0.05 µM): 0.373
relative viability (NCI-H2087; first compound 0.1581 µM): 0.229
relative viability (NCI-H2087; first compound 0.5 µM): 0.131
relative viability (LOU-NH91; first compound 0.005 µM): 0.732
relative viability (LOU-NH91; first compound 0.01581 µM): 0.75
relative viability (LOU-NH91; first compound 0.05 µM): 0.467
relative viability (LOU-NH91; first compound 0.1581 µM): 0.413
relative viability (LOU-NH91; first compound 0.5 µM): 0.508
relative viability (NCI-H1792; first compound 0.01581 µM): 0.107
relative viability (NCI-H1792; first compound 0.05 µM): 0.16
relative viability (NCI-H1792; first compound 0.1581 µM): 0.196
relative viability (NCI-H1792; first compound 0.5 µM): 0.133
relative viability (NCI-H522; first compound 0.005 µM): 0.669
relative viability (NCI-H522; first compound 0.01581 µM): 0.602
relative viability (NCI-H522; first compound 0.05 µM): 0.554
relative viability (NCI-H522; first compound 0.1581 µM): 0.489
relative viability (NCI-H522; first compound 0.5 µM): 0.449
relative viability (NCI-H1355; first compound 0.005 µM): 0.353
relative viability (NCI-H1355; first compound 0.01581 µM): 0.428
relative viability (NCI-H1355; first compound 0.05 µM): 0.382
relative viability (NCI-H1355; first compound 0.1581 µM): 0.254
relative viability (NCI-H1355; first compound 0.5 µM): 0.261
relative viability (NCI-H661; first compound 0.005 µM): 0.264
relative viability (NCI-H661; first compound 0.01581 µM): 0.254
relative viability (NCI-H661; first compound 0.05 µM): 0.239
relative viability (NCI-H661; first compound 0.1581 µM): 0.23
relative viability (NCI-H661; first compound 0.5 µM): 0.237
relative viability (NCI-H2405; first compound 0.005 µM): 0.387
relative viability (NCI-H2405; first compound 0.01581 µM): 0.34
relative viability (NCI-H2405; first compound 0.05 µM): 0.288
relative viability (NCI-H2405; first compound 0.1581 µM): 0.238
relative viability (NCI-H2405; first compound 0.5 µM): 0.258
relative viability (NCI-H2342; first compound 0.005 µM): 0.543
relative viability (NCI-H2342; first compound 0.01581 µM): 0.57
relative viability (NCI-H2342; first compound 0.05 µM): 0.482
relative viability (NCI-H2342; first compound 0.1581 µM): 0.449
relative viability (NCI-H2342; first compound 0.5 µM): 0.404
